Experimental data published in the supplement of paper PMC10307832.

How the values were obtained:
Experiment in all cases: relative viability (nuclei count vs DMSO), 5 days (fraction); higher = more cells survive
Bortezomib + Palbociclib = compound: CC(C)C[C@H](NC(=O)[C@H](Cc1ccccc1)NC(=O)c1cnccn1)B(O)O [Bortezomib] + CC(=O)c1c(C)c2cnc(Nc3ccc(N4CCNCC4)cn3)nc2n(C2CCCC2)c1=O [Palbociclib] (partner 0.5 µM)
Outline: (§1)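 Nuclei were stained with Hoechst during a one-step fixation (final 0.05% Triton X-100, 1% formaldehyde, 1 ug/ml Hoechst) carried out 5 days after dosing, then counted on 4× images. The cells, lung cancer lines in 1536-well plates, had been dosed by pin tool the day after seeding with one drug alone or a fixed anchor-drug dose plus five library-drug doses (not always all listed) in √10 steps. Relative viability is the nuclei count in treated wells divided by that in vehicle wells, and each value is the median of duplicate plates.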

[1] = compound: CC1=CC(=NN1)NC2=CC(=NC(=N2)/C=C/C3=CC=CC=C3)N4CCN(CC4)C + N=C(N)NC(=N)NCCc1ccccc1 [Phenformin] (partner 250 µM)
Outline: as §1

Bortezomib + Foretinib = compound: CC(C)C[C@H](NC(=O)[C@H](Cc1ccccc1)NC(=O)c1cnccn1)B(O)O [Bortezomib] + COc1cc2c(Oc3ccc(NC(=O)C4(C(=O)Nc5ccc(F)cc5)CC4)cc3F)ccnc2cc1OCCCN1CCOCC1 [Foretinib] (partner 0.25 µM)
Outline: as §1

Obatoclax + Pemetrexed = compound: COC1=CC(c2cc3ccccc3[nH]2)=N/C1=C\c1[nH]c(C)cc1C [Obatoclax] + Nc1nc2[nH]cc(CCc3ccc(C(=O)N[C@@H](CCC(=O)O)C(=O)O)cc3)c2c(=O)[nH]1 [Pemetrexed] (partner 0.2 µM)
Outline: as §1

| Cell Line | relative viability (Bortezomib + Palbociclib; first compound 0.0002 µM) | relative viability (Bortezomib + Palbociclib; first compound 0.000632 µM) | relative viability (Bortezomib + Palbociclib; first compound 0.002 µM) | relative viability (Bortezomib + Palbociclib; first compound 0.006325 µM) | relative viability (Bortezomib + Palbociclib; first compound 0.02 µM) | relative viability ([1]; first compound 0.08 µM) | relative viability ([1]; first compound 0.253 µM) | relative viability ([1]; first compound 0.8 µM) | relative viability ([1]; first compound 2.53 µM) | relative viability ([1]; first compound 8 µM) | relative viability (Bortezomib + Foretinib; first compound 0.0002 µM) | relative viability (Bortezomib + Foretinib; first compound 0.000632 µM) | relative viability (Bortezomib + Foretinib; first compound 0.002 µM) | relative viability (Bortezomib + Foretinib; first compound 0.006325 µM) | relative viability (Bortezomib + Foretinib; first compound 0.02 µM) | relative viability (Obatoclax + Pemetrexed; first compound 0.01 µM) | relative viability (Obatoclax + Pemetrexed; first compound 0.03162 µM) | relative viability (Obatoclax + Pemetrexed; first compound 0.1 µM) | relative viability (Obatoclax + Pemetrexed; first compound 0.3162 µM) | relative viability (Obatoclax + Pemetrexed; first compound 1 µM) |
| --- | --- | --- | --- | --- | --- | --- | --- | --- | --- | --- | --- | --- | --- | --- | --- | --- | --- | --- | --- | --- |
| 201T | 0.339 | 0.367 | 0.37 | 0.33 | 0.218 | 0.454 | 0.461 | 0.415 | 0.373 | 0.258 | 1.05 | 1.11 | 0.793 | 0.297 | 0.172 | 0.339 | 0.315 | 0.282 | 0.34 | 0.359 |
| A549 |  |  |  |  |  | 0.178 | 0.181 | 0.195 | 0.0435 | 0.025 | 0.87 | 1.01 | 0.986 | 0.0286 | 0.0217 |  |  |  |  |  |
| A-427 | 0.508 | 0.469 | 0.53 | 0.272 | 0.169 | 0.347 | 0.21 | 0.282 | 0.121 | 0.0986 | 1.02 | 1.1 | 0.932 | 0.483 | 0.122 | 0.95 | 0.965 | 0.74 | 0.909 | 0.75 |
| ABC-1 | 0.619 | 0.709 | 0.269 | 0.229 | 0.328 | 0.199 | 0.192 | 0.26 | 0.234 | 0.187 | 0.917 | 0.874 | 0.284 | 0.229 | 0.204 |  |  |  |  |  |
| BEN | 0.443 | 0.461 | 0.489 | 0.445 | 0.236 | 0.228 | 0.269 | 0.259 | 0.236 | 0.196 | 0.494 | 0.866 | 0.769 | 0.572 | 0.356 | 0.852 | 0.534 | 0.44 | 0.618 | 0.762 |
| CAL-12T | 0.561 | 0.447 | 0.384 | 0.182 | 0.104 | 0.608 | 0.489 | 0.442 | 0.17 | 0.109 | 1.18 | 1.07 | 1.08 | 0.743 | 0.154 | 1.04 | 1.16 | 1.13 | 0.896 | 0.149 |
| COR-L23 | 0.308 | 0.274 | 0.183 | 0.0534 | 0.0546 | 0.45 | 0.479 | 0.414 | 0.0934 | 0.0951 | 0.934 | 0.931 | 0.874 | 0.0924 | 0.0681 | 0.193 | 0.188 | 0.197 | 0.203 | 0.182 |
| COR-L 105 | 0.439 | 0.381 | 0.345 | 0.378 | 0.355 | 0.453 | 0.495 | 0.469 | 0.213 | 0.17 | 0.997 | 1 | 0.995 | 0.262 | 0.255 | 1.13 | 1.01 | 1.15 | 1.27 | 0.584 |
| Calu-6 |  |  |  |  |  |  |  |  |  |  | 0.803 | 0.856 | 0.839 | 0.0564 | 0.0507 |  |  |  |  |  |
| ChaGo-K-1 | 0.956 | 0.903 | 0.942 | 0.382 | 0.136 | 0.482 | 0.442 | 0.434 | 0.151 | 0.121 | 0.837 | 0.822 | 0.992 | 0.245 | 0.185 | 0.243 | 0.252 | 0.261 | 0.265 | 0.274 |
| EBC-1 |  |  |  |  |  |  |  |  |  |  | 0.11 | 0.106 | 0.0957 | 0.0676 | 0.0605 |  |  |  |  |  |
| EKVX | 0.361 | 0.401 | 0.28 | 0.171 | 0.079 | 0.236 | 0.21 | 0.236 | 0.189 | 0.109 | 0.847 | 0.843 | 0.897 | 0.872 | 0.21 | 0.397 |  | 0.358 | 0.372 | 0.436 |
| EMC-BAC-2 | 0.524 | 0.484 | 0.466 | 0.285 | 0.205 | 0.511 | 0.559 | 0.432 | 0.228 | 0.0995 | 0.993 | 1.03 | 1.13 | 0.279 | 0.203 | 0.42 | 0.47 | 0.395 | 0.452 | 0.419 |
| EPLC-272H | 0.307 | 0.29 | 0.304 | 0.111 | 0.0584 | 0.315 | 0.24 | 0.258 | 0.147 | 0.135 | 0.7 | 0.506 | 0.148 | 0.0867 | 0.0676 | 0.324 | 0.387 | 0.422 | 0.327 | 0.263 |
| H3255 | 0.322 | 0.335 | 0.285 | 0.256 | 0.243 | 0.369 | 0.362 | 0.684 | 0.341 | 0.27 | 0.763 | 0.994 | 0.935 | 0.638 | 0.283 | 0.54 | 0.51 | 0.498 | 0.471 | 0.597 |
